# Measurements from publication PMC12294558, “New 1,2,4-Triazole Derivatives with a N-Mannich Base Structure Based on a 4,6-Dimethylpyridine Scaffold as Anticancer Agents: Design, Synthesis, Biological Evaluation, and Molecular Modeling” (International Journal of Molecular Sciences, 2025).
# Marks after values point to notes of the source that are not given here.
# How the values were obtained:
# [1] = test system: LoVo cells; assay: MTT viability assay, colorectal cancer cells LoVo; format: cell-based, human; conditions: for SI, LoVo: CC50 CCD 841 CoTr / CC50 LoVo
# Method: The cytotoxic effects of ten newly synthesized N-Mannich bases were assessed on the normal human intestinal epithelium (CCD 841 CoTr) and cancer cell lines: gastric cancer (EPG) and four colorectal cancer lines (Caco-2, LoVo, LoVo/Dx, and HT-29). Cell viability was evaluated using the MTT assay in accordance with Annex C of ISO 10993-5 [33].
# The biological activity of the newly synthesized compounds was assessed in the context of anticancer activity. For this purpose, several gastrointestinal cancer lines were selected: gastric cancer (EPG 257, which belongs to the collection of the Laboratory of Cell Culture and Advanced Therapy at the University of Environmental and Life Sciences in Wrocław), and four colorectal cancer cell lines (LoVo, Caco-2, and HT-29) were obtained from the European Collection of Authenticated Cell Cultures (ECACC) and were delivered by Sigma-Aldrich, a certified distributor for the biobank. Additionally, LoVo cells were used to develop a doxorubicin-resistant subline, referred to as LoVo/Dx. Resistance was induced through gradual adaptation to increasing concentrations of doxorubicin, starting from 0.1 µg/mL and incrementally raised to 0.8 µg/mL. After reaching the maximum concentration, the cells were maintained in a medium containing 0.4 µg/mL doxorubicin for a period of three months to stabilize the resistant phenotype. […] The resulting LoVo/Dx subline, resistant to doxorubicin, was cultured in DMEM/F-12 medium and utilized in assays evaluating the effectiveness of novel compounds against multidrug-resistant cancer cells. […] The non-cancerous cell control was normal colonic epithelial cells (CCD 841 CoTr from American Type Culture Collection, (ATCC, Manassas, VA, USA)). Cell cultures were performed under standard conditions (5% CO2, 95% humidity, and 37 °C). Each cell line was cultured in the recommended medium: (1) HT-29 in McCoy’s 5a, (2) Caco-2 in Minimal Essential Medium (MEM, Biological Industries, Beit Haemek, Israel), (3) CCD 841 CoTr in Dulbecco’s Modified Eagle Medium (DMEM, Biological Industries, Beit Haemek, Israel), (4) LoVo in Dulbecco’s Modified Eagle Medium/F-12 (DMEM/F-12; Biological Industries, Beit Haemek, Israel), (5) LoVo/Dx in DMEM/F-12, and (6) EPG in DMEM. Culture media were supplemented with 10% fetal bovine serum (FBS, Sigma-Aldrich, Darmstadt, Germany) and antibiotics (penicillin and streptomycin; Sigma-Aldrich, Darmstadt, Germany). For assays, trypsinized (TrypLE solution, Thermo Fisher Scientific, Waltham, MA, USA) cells were seeded at appropriate densities of 10,000 cells per well for MTT and determination of apoptotic and necrotic cell numbers; 30,000 cells per well for the rhodamine accumulation assay; and 500,000 cells per well for ELISA tests.
# The cytotoxicity of the compounds and drugs used as controls was assessed using the MTT assay. The assay also included a DMSO control. After seeding and allowing the cells to adhere overnight, they were treated with the tested compounds and drugs for another 24 h. After this time, the supernatant was removed, and a 1 mg/mL MTT solution was added for 2 h in 5% CO2, 95% humidity, at 37 °C. The supernatant was then removed, and isopropanol was added to dissolve the purple crystals over 30 min by shaking. Absorbance was measured at 570 nm in a Multiskan GO microplate reader (Thermo Fisher Scientific; Waltham, MA, USA). All reagents used for the assays were purchased from Sigma-Aldrich, Darmstadt, Germany.
# Biological assays were performed in three independent replicates, each involving four samples. ELISA determinations were repeated three times.
# [2] = biological target: T1, P-glycoprotein (LoVo/Dx cells) (Homo sapiens, UniProt P08183); assay: Rhodamine-123 accumulation assay in LoVo/Dx; format: cell-based; conditions: 50 µM, 24 h; versus untreated control
# T1 construct: intracellular accumulation of rhodamine 123 (a fluorescent P-gp substrate analog) in P-gp-expressing cell lines (HT-29, LoVo, and LoVo/Dx); endogenous in cells; host or cells: HT-29, LoVo (ECACC via Sigma-Aldrich); LoVo/Dx (doxorubicin-selected subline of LoVo)
# T1 sequence (P08183 whole entry): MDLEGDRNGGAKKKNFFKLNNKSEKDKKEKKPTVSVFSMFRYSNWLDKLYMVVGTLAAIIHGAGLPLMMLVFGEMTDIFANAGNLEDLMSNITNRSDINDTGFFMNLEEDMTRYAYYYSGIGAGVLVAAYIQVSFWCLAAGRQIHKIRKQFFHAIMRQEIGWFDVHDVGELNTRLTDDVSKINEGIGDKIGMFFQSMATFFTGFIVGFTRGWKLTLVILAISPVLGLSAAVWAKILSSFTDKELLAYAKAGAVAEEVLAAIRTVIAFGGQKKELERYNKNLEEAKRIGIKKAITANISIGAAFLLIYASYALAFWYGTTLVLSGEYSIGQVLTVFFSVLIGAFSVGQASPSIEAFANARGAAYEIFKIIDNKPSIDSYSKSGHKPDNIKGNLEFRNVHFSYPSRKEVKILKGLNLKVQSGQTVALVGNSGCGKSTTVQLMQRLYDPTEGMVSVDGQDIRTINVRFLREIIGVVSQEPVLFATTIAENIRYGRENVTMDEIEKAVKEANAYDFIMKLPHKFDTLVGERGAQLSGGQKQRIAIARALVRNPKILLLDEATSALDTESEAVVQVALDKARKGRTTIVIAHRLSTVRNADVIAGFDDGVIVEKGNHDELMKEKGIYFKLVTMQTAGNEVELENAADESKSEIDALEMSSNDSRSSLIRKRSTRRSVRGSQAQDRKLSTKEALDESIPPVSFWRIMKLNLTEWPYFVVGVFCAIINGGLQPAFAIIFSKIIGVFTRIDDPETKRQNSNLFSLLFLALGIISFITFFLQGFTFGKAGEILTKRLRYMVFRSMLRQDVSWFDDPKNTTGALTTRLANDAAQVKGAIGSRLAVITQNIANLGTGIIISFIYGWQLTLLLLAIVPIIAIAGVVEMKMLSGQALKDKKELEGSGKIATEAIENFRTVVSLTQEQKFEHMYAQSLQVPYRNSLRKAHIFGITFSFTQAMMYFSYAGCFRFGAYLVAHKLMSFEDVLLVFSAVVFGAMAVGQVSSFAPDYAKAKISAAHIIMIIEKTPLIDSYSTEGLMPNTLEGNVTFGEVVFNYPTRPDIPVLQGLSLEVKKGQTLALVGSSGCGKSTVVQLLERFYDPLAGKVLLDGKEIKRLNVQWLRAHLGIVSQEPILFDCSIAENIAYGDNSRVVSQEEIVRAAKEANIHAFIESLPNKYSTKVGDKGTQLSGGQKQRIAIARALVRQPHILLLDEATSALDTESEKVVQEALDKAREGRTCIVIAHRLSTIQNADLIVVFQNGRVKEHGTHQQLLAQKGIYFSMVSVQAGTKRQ
# Source text: This test measured the intracellular accumulation of rhodamine 123 (a fluorescent P-gp substrate analog) in P-gp-expressing cell lines (HT-29, LoVo, and LoVo/Dx). Following accumulation and efflux phases, the fluorescence of rhodamine 123 (Rh-123) was quantified using spectrofluorimetry. The results are illustrated in Figure 3. Verapamil, a calcium channel blocker, served as a positive control for P-gp inhibition due to its well-established ability to inhibit P-gp activity. Verapamil binds to P-gp, inhibiting its function, which increases the intracellular concentration of chemotherapeutic drugs and other P-gp substrates.
# The activity was measured for cells treated with a 50 µM concentration of the compounds and drugs in the recommended media for each cell line (without FBS) in a volume of 100 µL for 24 h. In this test, verapamil served as the control. After the incubation period, a 10 mM Rhodamine-123 (Rh-123) solution was prepared in a 1:1 DMSO mixture. […] Fluorescence was measured at 485 nm excitation and 538 nm emission using a Biotek Synergy H1 microplate reader (Agilent Technologies, Inc., Santa Clara, CA, USA). […]
# Results are expressed as the mean ± SD (standard deviation) relative to the respective control (E/E0), where E represents the mean result for the measured sample, and E0 represents the mean result for the control. […]
# [3] = test system: HT-29 cells; assay: Annexin-V/propidium iodide apoptosis and necrosis detection; format: cell-based, human; conditions: HT-29, 1 µM, 24 h
# Method: To evaluate the impact of new compounds on apoptosis induction, an annexin-V/propidium iodide staining assay was conducted on HT-29 cells, with doxorubicin serving as the positive control (Figure 4). The tested compounds 5 and 6, at a concentration of 1 µM, increased the number of cells in the apoptosis phase, although to a lesser extent than doxorubicin.
# The assessment of cell death—apoptosis was performed after 24 h of incubation of HT-29 cells with a concentration of 1 µM of compounds 5 and 6 and doxorubicin. Fluorescein-conjugated annexin V in PBS with Mg^2+ and Ca^2+ ions (Thermo Fisher Scientific, Waltham, MA, USA) was then used. To ensure that all cells (both live and dead) were counted, 10 µM Hoechst (Sigma-Aldrich, Darmstadt, Germany) was added to stain cell nuclei. The culture was then incubated for 20 min at 37 °C. Apoptosis analysis was performed under a fluorescence microscope (EVOS FL, Thermo Fisher Scientific, Waltham, MA, USA), using 10× magnification, in triplicate for each compound. The open-source ImageJ platform with the Fiji plugin [57] was used to analyze the number of all cells, as well as those in the apoptotic and necrotic phases.
# The fluorescence signal was interpreted as follows: green fluorescence indicated apoptotic cells (annexin V staining), red fluorescence corresponded to necrotic cells, and blue fluorescence (Hoechst staining) marked all cell nuclei.
Compound,"SI, LoVo [1]","CC50 ± SD, LoVo ([1]; MTT, 24 h, Non-toxic = no toxicity in tested range 1–500 μM)","Increase of Rh-123 accumulation, LoVo/Dx [2] [fold]",Increase in apoptotic cells compared to untreated cells [3] [fold],Number of necrotic cells [3],"CC50 ([1]; Homo sapiens, LoVo, MTT, 24 h, Non-toxic = no toxicity in tested range 1–500 μM, read-out: CC50 ± SD, LoVo) [µM]"
"Cc1cc(C)c(C(=O)NCc2nn(CN3CCN(c4cccc(Cl)c4)CC3)c(=S)n2-c2ccccc2)c(S)n1 [Compound 5, 4,6-dimethyl-N-[(4-phenyl-5-thioxo-2-{[4-(3-chlorophenyl)piperazinyl]methyl}-4,5-dihydro-1H-1,2,4-triazol-3-yl)methyl]-2-sulfanylpyridine-3-carboxamide]",>>1 ^c,Non-toxic ^b,4.2,> 3.5,significant rise,–
Cc1ccc(N2CCN(Cn3nc(CNC(=O)c4c(C)cc(C)nc4S)n(-c4ccccc4)c3=S)CC2)cc1 [Compound 6],2.37,–,3.5,~5,–,163 ± 4.6
